From patent US10561656B2, “Organic compounds” (INTRA-CELLULAR THERAPIES, INC., priority 2011, dated 2020)

Key:
[1] = biological target: recombinant full length human PDE1A (r-hPDE1A) (Homo sapiens (Human), UniProt P54750); assay: IMAP phosphodiesterase assay, r-hPDE1A; type: biochemical; conditions: IMAP fluorescence polarization, FL-GMP substrate
Excerpt: (§1) Phosphodiesterase 1B (PDE1B) is a calcium/calmodulin dependent phosphodiesterase enzyme that converts cyclic guanosine monophosphate (cGMP) to 5′-guanosine monophosphate (5′-GMP). PDE1B can also convert a modified cGMP substrate, such as the fluorescent molecule cGMP-fluorescein, to the corresponding GMP-fluorescein. The generation of GMP-fluorescein from cGMP-fluorescein can be quantitated, using, for example, the IMAP (Molecular Devices, Sunnyvale, Calif.) immobilized-metal affinity particle reagent.
(§2) Briefly, the IMAP reagent binds with high affinity to the free 5′-phosphate that is found in GMP-fluorescein and not in cGMP-fluorescein. The resulting GMP-fluorescein—IMAP complex is large relative to cGMP-fluorescein. Small fluorophores that are bound up in a large, slowly tumbling, complex can be distinguished from unbound fluorophores, because the photons emitted as they fluoresce retain the same polarity as the photons used to excite the fluorescence.
(§3) In the phosphodiesterase assay, cGMP-fluorescein, which cannot be bound to IMAP, and therefore retains little fluorescence polarization, is converted to GMP-fluorescein, which, when bound to IMAP, yields a large increase in fluorescence polarization (Δmp) Inhibition of phosphodiesterase, therefore, is detected as a decrease in Δmp.
Materials: All chemicals are available from Sigma-Aldrich (St. Louis, Mo.) except for IMAP reagents (reaction buffer, binding buffer, FL-GMP and IMAP beads), which are available from Molecular Devices (Sunnyvale, Calif.).
Assay: The following phosphodiesterase enzymes may be used: 3′,5′-cyclic-nucleotide-specific bovine brain phosphodiesterase (Sigma, St. Louis, Mo.) (predominantly PDE1B) and recombinant full length human PDE1A and PDE1B (r-hPDE1A and r-hPDE1B respectively) which may be produced e.g., in HEK or SF9 cells by one skilled in the art. The PDE1 enzyme is reconstituted with 50% glycerol to 2.5 U/ml. One unit of enzyme will hydrolyze 1.0 μmole of 3′,5′-cAMP to 5′-AMP per min at pH 7.5 at 30° C. One part enzyme is added to 1999 parts reaction buffer (30 μM CaCl2, 10 U/ml of calmodulin (Sigma P2277), 10 mM Tris-HCl pH 7.2, 10 mM MgCl2, 0.1% BSA, 0.05% NaN3) to yield a final concentration of 1.25 mU/ml. […]
(§4) The FL-GMP conversion reaction is initiated by combining 4 parts enzyme and inhibitor mix with 1 part substrate solution (0.225 μM) in a 384-well microtiter plate. […] The plate is incubated at room temperature for 1 hour to allow IMAP binding to proceed to completion, and then placed in an Envision multimode microplate reader (PerkinElmer, Shelton, Conn.) to measure the fluorescence polarization (Δmp).
(§5) A decrease in GMP concentration, measured as decreased Δmp, is indicative of inhibition of PDE activity.

C57BL/6 mice = assay: Haloperidol-induced catalepsy model (bar grip test); type: in vivo; conditions: mouse, PO, haloperidol 3 mg/kg PO, step down latency
Excerpt: To evaluate the potential beneficial effects to motor defects present in schizophrenics treated with typical and atypical antipsychotic agents and in Parkinson's disease patients, the compounds of the invention may be tested in a reversal of catalepsy model in which motor freezing, or catalepsy, is induced by potent dopamine D2 receptor antagonists such as haloperidol or risperidone. The method uses the “bar grip test”, in which the front paws of the mouse are placed so as to grip a 3 mm-diameter, suspended wooden bar. A “step down latency” is measured by recording the time until the mouse removes its paws from the wooden bar to the floor surface. […]
A total of seventeen (17) eight week-old, male, C57BL/6 mice (Jackson Laboratories) are used in a typical experiment testing the effect of the compound of Example 1 or 2. […] A catalepsy score is recorded for each mouse at 2, 3, 4 and 6 hours after administration of drugs. […] The latency until the mouse steps both paws down from the bar to the floor surface (i.e., step down latency) is recorded up to 120 sec. […] If none of the 10 attempts are beyond 10 sec, the longest duration recorded is used as the catalepsy score. Otherwise, the initial cataleptic duration (>10 sec) is recorded during the 120 sec testing time. Mean step down latency is calculated for each treatment group. […]

[2] = biological target: recombinant full length human PDE1B (r-hPDE1B) (Homo sapiens (Human), UniProt Q01064); assay: IMAP phosphodiesterase assay, r-hPDE1B; type: biochemical; conditions: IMAP fluorescence polarization, FL-GMP substrate
Excerpt: as §1, §2, §3
Materials: All chemicals are available from Sigma-Aldrich (St. Louis, Mo.) except for IMAP reagents (reaction buffer, binding buffer, FL-GMP and IMAP beads), which are available from Molecular Devices (Sunnyvale, Calif.). […]
as §4, §5

rats = assay: Novel Object Recognition (NOR) assay; type: in vivo; conditions: rat, 0.3 mg/Kg PO, dosed 2 hours before T1, p<0.01
Excerpt: To measure the cognition-enhancing effects of the compounds of the invention, the candidate compounds may be evaluated in a Novel Object Recognition (NOR) assay. This assay protocol is described in detail in Ennaceur et al., Behav. Brain Res. (1988) 31:47-59 and Prickaerts et al., Eur. J. Pharmacol. (1997) 337:125-136, the contents of each of which are incorporated by reference in their entirety. In this protocol, the rats are introduced to a chamber at time T1 and allowed to interrogate two identical “familiar objects” for six minutes. Twenty four hours later, they are re-introduced to this chamber, where one of the familiar objects has been replaced with a novel object. The “discrimination index”, a measure of the time spent in close proximity to the novel over the familiar object, may then be measured. Since rodents will forget the original experience at T1 within 4 hours, this test with a 24 h interval is a measure of strong cognitive enhancement.
This assay protocol can be modified in order to evaluate different phases of memory. There are three general phases of memory, namely, acquisition, consolidation and retrieval. In this modified protocol, the rats may be dosed with the candidate compound two hours before T1 and tested 24 h later, without additional dosing. This is a test of the acquisition process. […]

Compound	IC50 [1]	minimal dose active in catalepsy model (C57BL/6 mice)	IC50 [2]	activity versus vehicle in Novel Object Recognition (rats)
CCSc1c2c(nn1Cc1ccc(-c3cccc(F)n3)cc1)N1CC(C)(C)N=C1N(C)C2=O [Example 2, 3-(ethylthio)-2-(4-(6-fluoropyridin-2-yl)benzyl)-5,7,7-trimethyl-7,8-dihydro-2H-imidazo[1,2-a]pyrazolo[4,3-e]pyrimidin-4(5H)-one]	1 nM	< 0.1 mg/kg	4000 nM	–
CCSc1c2c(nn1Cc1ccc(-c3ccc(F)cn3)cc1)N1CC(C)(C)N=C1N(C)C2=O [Example 1, 3-(ethylthio)-2-(4-(5-fluoropyridin-2-yl)benzyl)-5,7,7-trimethyl-7,8-dihydro-2H-imidazo[1,2-a]pyrazolo[4,3-e]pyrimidin-4(5H)-one]	2.7 nM	< 0.1 mg/kg	11000 nM	active versus vehicle
CC(C)Sc1c2c(nn1Cc1ccc(-c3cccc(F)n3)cc1)N1C(=N[C@@H]3CCC[C@@H]31)N(C)C2=O [Example 3-B, (6aR,9aS)-5,6a,7,8,9,9a-hexahydro-5-methyl-3-(isopropylthio)-2-(4-(6-fluoropyridin-2-yl)benzyl)-cyclopent[4,5]imidazo[1,2-a]pyrazolo[4,3-e]pyrimidin-4(2H)-one]	6 nM	–	–	–
CCSc1c2c(nn1Cc1ccc(-c3cccc(F)n3)cc1)N1C(=N[C@@H]3CCC[C@@H]31)N(C)C2=O [Example 3-A, (6aR,9aS)-5,6a,7,8,9,9a-hexahydro-5-methyl-3-(ethylthio)-2-(4-(6-fluoropyridin-2-yl)benzyl)-cyclopent[4,5]imidazo[1,2-a]pyrazolo[4,3-e]pyrimidin-4(2H)-one]	1.5 nM	–	27000 nM	–
